“And” between values parts separate entries of the source, which are not always exact repeats. Equal entries are not always repeated.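 Test compounds were applied to cells in 96-well plates for 48 hours at 5 doses. GI50 = concentration required for 50% inhibition of growth. TGI denotes the concentration required for complete inhibition of growth.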

Test systems include CCRF-CEM leukemia; HL-60(TB) leukemia; HOP-92 NSCLC; HS 578T breast; MALME-3M melanoma; NCI-H460 lung; SN12C renal; SR leukemia; SW-620 colon; U251 CNS.
What all share (assay): inhibition of tumour cell growth, NCI panel, 48 h

Regarding `N#Cc1c(-c2ccc(Cl)cc2)c2c([nH]c1=O)-c1cc([N+](=O)[O-])ccc1CCC2`, the TGI is above 100 µM with CCRF-CEM leukemia; 65.1 µM with HL-60(TB) leukemia; 38.5 µM in the test on HOP-92 NSCLC; 99.2 µM in the test with HS 578T breast; above 100 µM with MALME-3M melanoma; 42.5 µM in the test on NCI-H460 lung. The TGI is 34.7 µM with SN12C renal, above 100 µM in the test with SR leukemia, above 100 µM with SW-620 colon and 41.6 µM with U251 CNS.

As to `COP(=O)(OC)[C@H](O)[C@H]1C[C@@H]1c1ccccc1`, the TGI in the test on HL-60(TB) leukemia, in the test on HOP-92 NSCLC, in the test on HS 578T breast, with MALME-3M melanoma, in the test with NCI-H460 lung and in the test with SW-620 colon was above 100 µM in each case. The TGI in the test with U251 CNS was above 100 µM.

In the case of `Cc1ccc(C(=O)Nc2ncn(C3CC(O)C(CO)O3)c(=O)n2)cc1` (stereo unspecified), the TGI with CCRF-CEM leukemia, in the test on HOP-92 NSCLC, with MALME-3M melanoma, in the test on NCI-H460 lung, in the test on SN12C renal and in the test on SW-620 colon was above 100 µM each time. In the test on U251 CNS, this molecule gave a TGI above 100 µM.

With `C/C(=C\C(=N\NC(=N)N)c1ccccc1)c1ccccc1`, the TGI in the test on CCRF-CEM leukemia was 1.8 µM; in the test on HOP-92 NSCLC, 3.22 µM; with HS 578T breast it was 18.5 µM; in the test on MALME-3M melanoma, 3.5 µM; in the test with NCI-H460 lung, 11.1 µM; in the test with SN12C renal it was 3.09 µM. The TGI in the test on SR leukemia is 6.59 µM; in the test with SW-620 colon, 1.73 µM; with U251 CNS it was 2.04 µM.

Take `COc1ccc(N=Cc2ccc(N(CCC#N)S(=O)(=O)c3ccccc3)cc2C)cc1`: the TGI with CCRF-CEM leukemia is above 100 µM; in the test on HL-60(TB) leukemia, above 100 µM; with HOP-92 NSCLC, above 100 µM; with MALME-3M melanoma, 93.7 µM; in the test with NCI-H460 lung, above 100 µM; with SN12C renal, above 100 µM. The TGI with SR leukemia, with SW-620 colon and with U251 CNS was above 100 µM throughout.

Consider `CN1NC(c2ccccc2)=C(C#N)C(=O)CC1c1ccc(F)cc1` (stereo unspecified), for which the TGI in the test on CCRF-CEM leukemia, in the test on HL-60(TB) leukemia, with HOP-92 NSCLC, with MALME-3M melanoma, in the test on NCI-H460 lung and with SN12C renal was above 100 µM each time. The TGI in the test with SR leukemia, with SW-620 colon and in the test with U251 CNS was above 100 µM each time.

With `CCCCCCCCCCCCSC(=S)c1c(C)[nH]n(CCCCCCCCCCCC)c1=O`, the TGI in the test with CCRF-CEM leukemia, in the test with HL-60(TB) leukemia, with MALME-3M melanoma, in the test with NCI-H460 lung, in the test on SN12C renal and in the test with SR leukemia was above 100 µM in each case. The TGI in the test on SW-620 colon and in the test with U251 CNS was above 100 µM throughout.

With `O=C(NC(Cc1ccc(Cl)cc1)C(=O)O)c1ccc(I)cc1` (stereo unspecified), the TGI in the test on CCRF-CEM leukemia, in the test on HL-60(TB) leukemia, with HOP-92 NSCLC, in the test with MALME-3M melanoma, in the test on NCI-H460 lung and in the test with SN12C renal was above 100 µM throughout. Besides, the TGI in the test with SW-620 colon and with U251 CNS was above 100 µM each time.

For `C=C1CC2C3C=C(C)C4=CC(=O)CC[C@]4(C)C3CC[C@]2(C)[C@@]1(OC(C)=O)C(C)=O` (stereo partly specified), the GI50 in the test with CCRF-CEM leukemia is 2.11 µM; in the test on HL-60(TB) leukemia it was 2.55 µM; with HS 578T breast it was 43.5 µM; in the test with NCI-H460 lung, 3.69 µM; in the test on SN12C renal, 1.16 µM; with SR leukemia, 3.19 µM. Also, the TGI with CCRF-CEM leukemia was above 100 µM; in the test on HL-60(TB) leukemia, 5.53 µM; in the test on HS 578T breast it was above 100 µM; with NCI-H460 lung, above 100 µM; in the test on SN12C renal, above 100 µM; in the test on SR leukemia it was above 100 µM.

For the molecule `Cc1cn(Cc2cn(CC3OC(n4cc(C)c(=O)[nH]c4=O)CC3O)nn2)c(=O)[nH]c1=O` (stereo unspecified), the TGI in the test on CCRF-CEM leukemia, with HS 578T breast, with MALME-3M melanoma, with SN12C renal, in the test on SW-620 colon and in the test with U251 CNS was above 100 µM throughout.

Turning to `COc1cc(C2C(=O)C(Cl)N2Nc2nc(C)cc(=O)[nH]2)cc(OC)c1OC` (stereo unspecified), the TGI was 33.7 µM with HL-60(TB) leukemia; 37.3 µM in the test with HOP-92 NSCLC; 21.9 µM with NCI-H460 lung; 53.1 µM with SN12C renal; 77.1 µM in the test on SR leukemia; above 100 µM in the test with SW-620 colon. In addition, the TGI with U251 CNS was determined as 36.3 µM.

On to `C[C@H]1CCC/C=C/[C@@H]2C[C@H](O)C[C@H]2[C@H](O)/C=C/C(=O)O1`, for which the GI50 with CCRF-CEM leukemia was < 0.0183 µM and 0.0501 µM and 0.0981 µM; with HL-60(TB) leukemia, 0.0281 µM and 0.167 µM and 0.115 µM; in the test with NCI-H460 lung, 0.036 µM and 0.0837 µM and 0.0828 µM; in the test on SN12C renal, 0.0294 µM and 0.0846 µM and 0.0485 µM; in the test on SR leukemia it was < 0.0146 µM and 0.0808 µM and 0.0415 µM. Besides, the TGI was 5.53 µM with CCRF-CEM leukemia; 1.82 µM and > 15.2 µM in the test on HL-60(TB) leukemia; above 100 µM in the test on HS 578T breast; 0.0745 µM and 0.0253 µM and 0.0382 µM in the test on MALME-3M melanoma; 3.95 µM and 0.491 µM in the test on SN12C renal; 0.0856 µM and 0.118 µM and 0.124 µM with SW-620 colon. Besides, in the test on U251 CNS, the TGI was above 100 µM.

With `O=C(CSSCC(=O)OCCS(=O)(=O)Nc1ccc(Br)cc1)OCCS(=O)(=O)Nc1ccc(Br)cc1`, the TGI with CCRF-CEM leukemia is above 100 µM; with HL-60(TB) leukemia, 38.7 µM; with HOP-92 NSCLC, 51.5 µM; in the test on MALME-3M melanoma, 22.8 µM; in the test with NCI-H460 lung, above 100 µM; with SN12C renal, 59.8 µM. Moreover, the TGI is 44.2 µM in the test on SW-620 colon and above 100 µM in the test on U251 CNS.

As to `COc1cc(/C=C2\N=C(c3ccccc3)N(c3nc4ccc(Sc5ccccc5)cc4[nH]3)C2=O)cc(OC)c1OC`, the TGI in the test with CCRF-CEM leukemia is above 100 µM; in the test on HL-60(TB) leukemia it was 37.8 µM; with HOP-92 NSCLC it was above 100 µM; in the test on HS 578T breast it was above 100 µM; in the test on MALME-3M melanoma, 40.3 µM; with NCI-H460 lung it was 51.4 µM. The TGI in the test with SN12C renal was 92.4 µM; in the test on SW-620 colon, above 100 µM; with U251 CNS, 43.9 µM.

As for `COc1ccc(N=Nc2c(N)nn(C)c2N)cc1`, the TGI with CCRF-CEM leukemia, with HL-60(TB) leukemia, in the test with HOP-92 NSCLC, in the test on MALME-3M melanoma, in the test with NCI-H460 lung and with SN12C renal was above 100 µM each time. In addition, the TGI in the test on SR leukemia, in the test with SW-620 colon and in the test on U251 CNS was above 100 µM throughout.

For `COc1cccc(NC(=O)CC(=O)NN2C(=O)/C(=C/c3ccc(N(CCC#N)CCC#N)cc3)N=C2c2cc([N+](=O)[O-])ccc2Cl)c1`, the TGI in the test with CCRF-CEM leukemia, in the test with HOP-92 NSCLC, in the test on MALME-3M melanoma, in the test with SN12C renal, in the test with SR leukemia and in the test on SW-620 colon was above 100 µM in each case. In the test on U251 CNS, the TGI is above 100 µM.

Consider `COC(=O)c1ccc2c(c1)sc1nc(-c3ccc(OC)cc3)cn12`, for which the TGI in the test with CCRF-CEM leukemia, in the test with HL-60(TB) leukemia, in the test on HOP-92 NSCLC, in the test with HS 578T breast, in the test with MALME-3M melanoma and in the test with NCI-H460 lung was above 100 µM each time. Moreover, the TGI in the test with SN12C renal, with SW-620 colon and in the test with U251 CNS was above 100 µM throughout.

Consider `CCOC(=O)/C(=C\NC(C)(C)CO)c1nc2ccccc2[nH]1`, for which the TGI in the test on CCRF-CEM leukemia is above 100 µM; in the test with HL-60(TB) leukemia it was above 100 µM; with HOP-92 NSCLC, above 100 µM; in the test with HS 578T breast, 97.7 µM; in the test on MALME-3M melanoma, above 100 µM; in the test with NCI-H460 lung, above 100 µM. Further, the TGI in the test on SN12C renal, with SR leukemia and in the test with SW-620 colon was above 100 µM throughout.

In the case of `C=C1c2nc3ccccc3n2C=C(c2ccc(Cl)cc2)N1c1ccc(OCCN2CCCCC2)cc1`, the GI50 is 0.226 µM in the test on CCRF-CEM leukemia; above 100 µM in the test with HOP-92 NSCLC; 0.415 µM in the test with MALME-3M melanoma; 1.2 µM in the test on NCI-H460 lung; 0.0439 µM in the test on SR leukemia; 3.75 µM in the test with U251 CNS. Moreover, the TGI is 45 µM with HL-60(TB) leukemia; above 100 µM in the test on HOP-92 NSCLC; 45 µM and > 100 µM with MALME-3M melanoma; 45 µM and > 100 µM in the test on NCI-H460 lung; above 45 µM with SN12C renal; above 45 µM with SW-620 colon. The same molecule registered a TGI in the test with U251 CNS above 100 µM.

For `O=c1[nH]c2cc([N+](=O)[O-])c(N/N=C/c3ccc(Cl)cc3Cl)c([N+](=O)[O-])c2[nH]1`, the TGI in the test with CCRF-CEM leukemia, in the test on HL-60(TB) leukemia, in the test with HOP-92 NSCLC, in the test on HS 578T breast, with MALME-3M melanoma and in the test with NCI-H460 lung was above 100 µM in each case. Further, the TGI in the test on SN12C renal, in the test with SW-620 colon and with U251 CNS was above 100 µM throughout.

Consider `O=c1c(-c2ccccc2)c(SCCN2CCOCC2)n(-c2ccccc2)c(=S)n1-c1ccccc1`, for which the TGI in the test on CCRF-CEM leukemia, with HL-60(TB) leukemia, with HOP-92 NSCLC, in the test on HS 578T breast, with MALME-3M melanoma and in the test with NCI-H460 lung was above 100 µM throughout. The TGI in the test with SR leukemia, in the test on SW-620 colon and in the test on U251 CNS was above 100 µM each time.

The values are drawn from PubChem BioAssay (NCI).
